Consider twelve molecules from patent US20180044306A1, “1,3,4-THIADIAZOL-2-YL-BENZAMIDE DERIVATIVES AS INHIBITORS OF THE WNT SIGNALLING PATHWAY” (Bayer Pharma Aktiengesellschaft, priority 2015, published 2018).

The test system of experiment [1] is constitutive active colorectal cancer cell (CRC) Wnt pathway (HCT116-TOP). Kind of experiment: Cellular reporter assay, HCT116 Super TopFlash (TOP), constitutive active Wnt pathway. The format is cell-based. The note with it: Homo sapiens, HCT-116; HCT116 Super TopFlash reporter cells, luciferase expression, 36 hours incubation, dilution series 50 μM to 15 nM. The protocol: In order to discover and characterize small molecules which inhibit the constitutive active colorectal cancer cell (CRC) Wnt pathway, a cellular reporter assay was employed. The corresponding assay cell was generated by transfection of the colorectal cancer cell line HCT116 (ATCC, #CCL-247) with the Super TopFlash vector (Morin, Science 275, 1997, 1787-1790; Molenaar et al., Cell 86 (3), 1996, 391-399). The HCT116 cell line is cultivated at 37° C. and 5% CO2 in DMEM/F-12 (Life Technologies, #11320-074), supplemented with 2 mM glutamine, 20 mM HEPES, 1.4 mM pyruvate, 0.15% Na-bicarbonate and 10% foetal bovine serum (GIBCO, #10270), this cancer cell line is pathophysiological relevant since it carries a deletion of position S45 in the β-catenin gene, leading to constitutive active Wnt signaling. Stable transfectants were generated by cotransfection with pcDNA3 and selection of stable transfected cells with 1 mg/ml G418.
(§1) In preparation of the assay, the two cell lines were plated 24 hours before at 10000 cells per well of a 384 micro titre plate (MTP) in 30 μL growth medium. Selective inhibitory activity for small molecules on the mutated Wnt pathway was determined after parallel incubation of both (TOP and FOP) HCT116 reporter cell lines with a compound dilution series from 50 μM to 15 nM in steps of 3.16-fold dilutions in CAFTY buffer (130 mM NaCI, 5 mM KCI, 20 mM HEPES, 1 mM MgCl2, 5 mM NaHCO3, pH 7.4) containing 2 mM Ca^2+ and 0.01% BSA. The compounds were thereby serially prediluted in 100% DMSO and thereafter in addition 50 fold into the CAFTY compound dilution buffer (described above). From this dilution 10 μL were added to the cells in 30 μL growth medium and incubated for 36 hours at 37° C. and 5% CO2. Thereafter luciferase assay buffer (1:1 mixture of luciferase substrate buffer (20 mM Tricine, 2.67 mM MgSO4, 0.1 mM EDTA, 4 mM DTT, 270 μM Coenzyme A, 470 μM Luciferin, 530 μM ATP, ph adjusted to pH 7.8 with a sufficient volume of 5M NaOH) and Triton buffer (30 mL Triton X-100, 115 mL glycerol, 308 mg Dithiothreitol, 4.45 g Na2HPO4. 2 H2O, 3.03 g TRIS HCl, ad 1I H2O, pH 7.8) was added as equal volume to the compound solution on the cells to determine luciferase expression as a measure of Wnt signaling activity in a luminometer.
(In general: In a reporter assay the amount or activity of a reporter protein is the signal.)

The test system of a further experiment is HCT116-FOP. Kind of experiment: Control reporter assay, HCT116 cells with FOP control vector (non-functional TCF elements). In kind it is cell-based. The note with it: Homo sapiens, HCT-116, luciferase expression, 36 hours incubation, dilution series 50 μM to 15 nM, read-out: HCT116-FOP IC50 [M] mol/L]. The protocol: In a parallel approach, HCT116 cells were cotransfected with the FOP control vector and pcDNA3. The FOP vector is identical to the TOP construct, but it contains instead of functional TCF elements a randomized, non-functional sequence. For this transfection a stable transfected cell line was generated as well.
as §1

Bounds are passed on as bounds.

Regarding `O=C(CN1CCOCC1)Nc1cc(C(=O)Nc2nnc(C3CCCCC3)s2)ccc1OC(F)(F)F` [Example 23, N-(5-cyclohexyl-1,3,4-thiadiazol-2-yl)-3-[(morpholin-4-ylacetyl)amino]-4-(trifluoromethoxy)benzamide], the IC50 in experiment [1] was 4.59 µM; in the experiment on HCT116-FOP it was at least 5e-05 M.

Turning to `COC(=O)N1CCN(c2nnc(NC(=O)c3ccc(OC(F)(F)F)c(NC(=O)CN4CCOCC4)c3)s2)CC1` [Example 24, methyl 4-[5-({3-[(morpholin-4-ylacetyl)amino]-4-(trifluoromethoxy)benzoyl}-amino)-1,3,4-thiadiazol-2-yl]piperazine-1-carboxylate], the IC50 in experiment [1] was 4.6 µM; with HCT116-FOP, at least 5e-05 M.

Regarding `CC1CCN(c2nnc(NC(=O)c3ccc(OC(F)(F)F)c(NC(=O)CN4CCOCC4)c3)s2)CC1` [Example 25, N-[5-(4-methylpiperidin-1-yl)-1,3,4-thiadiazol-2-yl]-3-[(morpholin-4-ylacetyl)-amino]-4-(trifluoromethoxy)-benzamide], the IC50 in experiment [1] is 13 µM; with HCT116-FOP, at least 5e-05 M.

`CC(=O)N1CCN(c2nnc(NC(=O)c3ccc(OC(F)(F)F)c(NC(=O)CN4CCOCC4)c3)s2)CC1` [Example 26, N-[5-(4-acetylpiperazin-1-yl)-1,3,4-thiadiazol-2-yl]-3-[(morpholin-4-ylacetyl)amino]-4-(trifluoromethoxy)benzamide]: the IC50 was 15 µM in experiment [1] and at least 5e-05 M in the experiment on HCT116-FOP.

Turning to `CC1(O)CCN(c2nnc(NC(=O)c3ccc(OC(F)(F)F)c(NC(=O)CN4CCOCC4)c3)s2)CC1` [Example 27], the IC50 is 20 µM in experiment [1] and at least 5e-05 M with HCT116-FOP.

On to `CN1CCN(CC(=O)Nc2cc(C(=O)Nc3nnc(N4CCC(C(C)(C)O)CC4)s3)ccc2OC(F)(F)F)CC1` [Example 28, N-{5-[4-(2-hydroxypropan-2-yl)piperidin-1-yl]-1,3,4-thiadiazol-2-yI}-3-{[(4-methylpiperazin-1-yl)-acetyl]amino}-4-(trifluoromethoxy)benzamide], for which the IC50 in experiment [1] was found to be 20 µM; in the experiment with HCT116-FOP, 2.69e-05 M.

Consider `O=C(CN1CCOCC1)Nc1cc(C(=O)Nc2nnc(N3CCC(O)CC3)s2)ccc1OC(F)(F)F` [Example 29, N-[5-(4-hydroxypiperidin-1-yl)-1,3,4-thiadiazol-2-yl]-3-[(morpholin-4-ylacetyl)-amino]-4-(trifluoromethoxy)-benzamide], for which the IC50 was 26.8 µM in experiment [1] and at least 5e-05 M in the experiment with HCT116-FOP.

`COC1CCN(c2nnc(NC(=O)c3ccc(OC(F)(F)F)c(NC(=O)CN4CCOCC4)c3)s2)CC1` [Example 30, N-[5-(4-methoxypiperidin-1-yl)-1,3,4-thiadiazol-2-yl]-3-((morpholin-4-ylacetyl)-amino]-4-(trifluoromethoxy)-benzamide]: the IC50 in experiment [1] is 33.5 µM; in the experiment on HCT116-FOP, at least 5e-05 M.

Consider `O=C(CN1CCOCC1)Nc1cc(C(=O)Nc2nnc(N3CCCCC3)s2)ccc1OC(F)(F)F` [Example 31, 3-[(morpholin-4-ylacetyl)-amino]-N-[5-(piperidin-1-yl)-1,3,4-thiadiazol-2-yl]-4-(trifluoromethoxy)benzamide], for which the IC50 was 34.1 µM in experiment [1] and at least 5e-05 M in the experiment with HCT116-FOP.

Take `O=C(CN1CCOCC1)Nc1cc(C(=O)Nc2nnc(N3CCCC3)s2)ccc1OC(F)(F)F` [Example 32, 3-[(morpholin-4-ylacetyl)-amino]-N-(5-(pyrrolidin-1-yl)-1,3,4-thiadiazol-2-yl)-4-(trifluoromethoxy)benzamide]: the IC50 in experiment [1] is 50 µM; with HCT116-FOP it was at least 5e-05 M.

For the molecule `CN(C)C(=O)N1CCN(c2nnc(NC(=O)c3ccc(OC(F)(F)F)c(NC(=O)CN4CCOCC4)c3)s2)CC1` [Example 33], the IC50 was 50 µM in experiment [1] and at least 5e-05 M in the experiment on HCT116-FOP.

For the molecule `CC1(C)CCN(c2nnc(NC(=O)c3ccc(OC(F)(F)F)c(NC(=O)CN4CCOCC4)c3)s2)CC1` [Example 34, N-[5-(4,4-dimethylpiperidin-1-yl)-1,3,4-thiadiazol-2-yl]-3-[(morpholin-4-ylacetyl)-amino]-4-(trifluoromethoxy)-benzamide], the IC50 was 50 µM in experiment [1] and at least 5e-05 M with HCT116-FOP.
